From patent US12054497B2, “Substituted heterocyclic fused cyclic compound, preparation method therefor and pharmaceutical use thereof” (GENFLEET THERAPEUTICS (SHANGHAI) INC., priority 2019, dated 2024) come the findings set out here.

Format in all cases: cell-based, human
Assay [1] concerns NCI-H358 cells with Kras G12C mutation. In words: Cell proliferation inhibition experiment, 3D spheroid, CellTiter-Glo (Test Example 1). The note with it: 5 days. The method, then:
(§1) NCI-H358 was a human NSCLC cell line with Kras G12C mutation, which was cultured in a RPMI-1640 medium with 10% fetal bovine serum (FBS). A549 was a human lung adenocarcinoma cell line with Kras G12S mutation, which was cultured in an F-12K medium with 10% FBS. Cells in logarithmic growth phase were detached with trypsin and EDTA, collected and counted, and H358 was regulated to 1.8E4 cells/ml by using an RPMI-1640 medium with 2% FBS, while A549 was regulated to 8.9E3 cells/ml with an F-12K medium containing 2% FBS. 800 (45 μl) H358 cells and 400 (45 μl) A549 cells were seeded to 384-well spheroid plates, respectively, and cultured overnight to establish 3D cell models. 1000× stock solutions of compounds at a concentration gradient of 3.16 were prepared by using DMSO, and diluted 100 times by the medium with 2% FBS into 10× stock solutions of compounds. On the day after cell seeding, 5 μl of 10× stock solution of a compound was added to each well of cell culture plate, with a final concentration being 1× and a DMSO content of 0.1%. DMSO was used as the control, and the medium with 2% FBS was used as blank control group. After 5 days of cell culture with the compound, 25 μl of CellTiter-Glo working solution was added to each well, and mixed uniformly at 400 rpm and incubation for 30 minutes. After standing at room temperature for 30 minutes, 40 μl of mixed solution was transferred to a 384-well plate with white clear bottom. A value of luminescence was then read, and a cell proliferation inhibition rate (IR) (%)=(RLU control-RLU compound)/(RLU control−RLU blank)×100%. The value of IC50 was calculated by fitting a gradiently diluted concentration of the compound and the corresponding cell proliferation inhibition rate using a Prism 6 four-parameter method.
For orientation: In ATP-based viability assays light output follows the ATP content of the culture.

In assay [2] the test system is A549 cells with Kras G12S mutation. The description is as above. The note with it: 5 days. The method, then:
as §1

Assay [3] has as its system phosphorylated ERK in MIA PaCa2 cells with Kras G12C mutation. In words: p-ERK HTRF assay for cells (Test Example 2). The note with it: Homo sapiens, MIA PaCa-2, 2 h, MIA PaCa2 cells, 2 hours with compound; read-out: p-ERK IC50. The method, then: MIA PaCa2 was a human pancreatic carcinoma cell line with Kras G12C mutation, which was cultured in a DMEM with 10% FBS and 2.5% Horse serum. Cells in logarithmic growth phase were detached with trypsin and EDTA, collected and counted, and 2.5E4 cells were seeded to a 96-well cell culture plate and cultured overnight. 1000× stock solutions of compounds at a concentration gradient of 3.16 were prepared by using DMSO, and diluted 200 times by the medium into 5× stock solutions of compounds. On the day after cell seeding, 5× stock solution of a compound was added to each well of cell culture plate, with a final concentration being 1× and a DMSO content of 0.1%. DMSO was used as the control. The residual culture was removed after culturing for 2 hours with the compound. To each well, 50 ul of cell lysis buffer was added and mixed uniformly and incubation for 30 minutes. Subsequently, 16 ul of mixed solution was transferred to a 96-well plate with white unclear bottom, and 16 ul of cell lysis buffer was added to the blank control group. After the completion of transfer, 4 ul of p-ERK HTRF antibody mixture was added to each well, and a value of fluorescence intensity was read after incubation for 4 hours. The inhibition rate (IR) of the compound was calculated by the following equation: IR (%)=(RLU control-RLU compound)/(RLU control−RLU blank)×100%. The value of IC50 was calculated by fitting a gradiently diluted concentration of the compound and the corresponding cell proliferation inhibition rate using a Prism 8 four-parameter method.
(In general: Time-resolved FRET reads energy transfer from a long-lived donor to a nearby acceptor.)

The subject of assay [4] is MIA PaCa-2 cells with Kras G12C mutation. Briefly: Cell proliferation inhibition experiment, 3D spheroid, CellTiter-Glo (Test Example 3). To be noted: Homo sapiens, MIA PaCa-2, 120 h, 5 days, read-out: MIA-PaCa2 IC50. The method, then: MIA PaCa-2 was a human pancreatic carcinoma cell line with Kras G12C mutation, which was cultured in a DMEM with 10% FBS and 2.5% Horse serum. A549 was a human lung adenocarcinoma cell line with Kras G12S mutation, which was cultured in an F-12K medium with 10% FBS. Cells in logarithmic growth phase were detached with trypsin and EDTA, collected and counted, and 200 MIA PaCa-2 cells and 400 A549 cells were seeded to 384-well spheroid plates, respectively, and cultured overnight to establish 3D cell models. 1000× stock solutions of compounds at a concentration gradient of 3.16 were prepared by using DMSO, and diluted 100 times by the medium into 10× stock solutions of compounds. On the day after cell seeding, 10× stock solution of a compound was added to each well of cell culture plate, with a final concentration being 1× and a DMSO content of 0.1%. DMSO was used as the control, and the medium was used as the blank. After 5 days of cell culture with the compound, 30 μl of CellTiter-Glo working solution was added to each well, and mixed uniformly and incubation for 30 minutes. After standing at room temperature for 30 minutes, 40 μl of mixed solution was transferred to a 384-well plate with white unclear bottom. A value of luminescence intensity was then read, and a cell proliferation inhibition rate (IR) (%)=(RLU control−RLU compound)/(RLU control−RLU blank)×100%. The value of IC50 was calculated by fitting a gradiently diluted concentration of the compound and the corresponding cell proliferation inhibition rate using an XLFit four-parameter method.

Each structure is given as a SMILES string.

As usually defined, the IC50 is the concentration that gives 50% inhibition. In the case of `C=CC(=O)N1CC2C(=O)N(C)c3c(c4cc(F)c(-c5c(O)cccc5F)nc4n(-c4c(C(F)(F)F)ccnc4C(C)C)c3=O)N2C[C@H]1C` (single isomer, unassigned) [Compound Z49-1], the IC50 is 0.009 µM in assay [1], 9.42 µM in assay [2], 0.114 µM in assay [3] and 0.012 µM in assay [4].

Turning to `C=CC(=O)N1C[C@@H]2COc3c(c4cc(F)c(-c5c(O)cccc5F)nc4n(-c4c(C)ccnc4C(C)C)c3=O)N2C[C@H]1C` [Compound Z3, (6aR,9R)-8-acryloyl-3-fluoro-2-(2-fluoro-6-hydroxyphenyl)-13-(2-isopropyl-4-methylpyridin-3-yl)-9-methyl-6,6a,7,8,9,10-hexahydropyrazino[1′,2′:4,5][1,4]oxopyrazino[3,2-c][1,8]naphthyridin-12(13H)-one], the IC50 was 0.016 µM in assay [1] (Homo sapiens, NCI-H358, 120 h); greater than 10 µM in assay [2] (Homo sapiens, A549, 120 h); 0.16 µM in assay [3]; 0.018 µM in assay [4].

For `C=CC(=O)N1C[C@@H]2COc3c(c4cc(F)c(-c5c(F)cccc5OC)nc4n(-c4c(C)ccnc4C(C)C)c3=O)N2C[C@H]1C` [Compound Z3a, (2R,4aR)-3-acryloyl-11-fluoro-10-(2-fluoro-6-methoxyphenyl)-8-(2-isopropyl-4-methylpyridin-3-yl)-2-methyl-1,2,3,4,4a,5-hexahydropyrazino[1′,2′:4,5][1,4]oxopyrazino[2,3-c][1,8]naphthyridin-7(8H)-one], the IC50 is 0.017 µM in assay [1] (Homo sapiens, NCI-H358, 120 h); greater than 10 µM in assay [2] (Homo sapiens, A549, 120 h); 0.273 µM in assay [3]; 0.07 µM in assay [4].

Turning to `C=CC(=O)N1CCN2c3c(c(=O)n(-c4c(C)ccnc4C(C)C)c4nc(-c5c(O)cccc5F)c(Cl)cc34)OC[C@H]2C1` [Compound Z6, (4aR)-3-acryloyl-11-chloro-10-(2-fluoro-6-hydroxyphenyl)-8-(2-isopropyl-4-methylpyridin-3-yl)-1,2,3,4,4a,5-hexahydropyrazino[1′,2′:4,5][1,4]oxazino[2,3-c][1,8]naphthyridin-7(8H)-one], the IC50 in assay [1] (Homo sapiens, NCI-H358, 120 h) came out at 0.035 µM; in assay [2] (Homo sapiens, A549, 120 h) it was 11.3 µM; in assay [3], 0.313 µM; in assay [4], 0.085 µM.

Consider `C=CC(=O)N1C[C@@H]2C(=O)N(C)c3c(c4cc(F)c(-c5c(O)cccc5F)nc4n(-c4c(C(C)C)ncnc4C(C)C)c3=O)N2C[C@H]1C` [Compound Z40, (2R,4aR)-3-acryloyl-8-(4,6-diisopropylpyrimidin-5-yl)-11-fluoro-10-(2-fluoro-6-hydroxyphenyl)-2,6-dimethyl-2,3,4,4a,6,8-hexahydro-1H-pyrazino[1′,2′:4,5]pyrazino[2,3-c][1,8]naphthyridin-5,7-dione], for which the IC50 in assay [1] (Homo sapiens, NCI-H358, 120 h) is 0.011 µM; in assay [2] (Homo sapiens, A549, 120 h), greater than 30 µM; in assay [3] it was 0.078 µM; in assay [4] it was 0.012 µM.

For `C=CC(=O)N1CCN2c3c(c(=O)n(-c4c(C(C)C)ncnc4C(C)C)c4nc(-c5c(O)cccc5F)c(F)cc34)N(C)C(=O)[C@H]2C1` [Compound Z41, (4aR)-3-acryloyl-8-(4,6-diisopropylpyrimidin-5-yl)-11-fluoro-10-(2-fluoro-6-hydroxyphenyl)-6-methyl-2,3,4,4a,6,8-hexahydro-1H-pyrazino[1′,2′:4,5]pyrazino[2,3-c][1,8]naphthyridin-5,7-dione], the IC50 is 0.017 µM in assay [1] (Homo sapiens, NCI-H358, 120 h); greater than 30 µM in assay [2] (Homo sapiens, A549, 120 h); 0.279 µM in assay [3]; 0.044 µM in assay [4].

Turning to `C=CC(=O)N1CCN2c3c(c(=O)n(-c4c(C)ccnc4C(C)C)c4nc(-c5c(O)cccc5F)c(F)cc34)NC(=O)CC2C1` (stereo not shown) [Compound Z42, 3-acryloyl-12-fluoro-11-(2-fluoro-6-hydroxyphenyl)-9-(2-isopropyl-4-methylpyridin-3-yl)-1,2,3,4,4a,5,7,9-octahydropyrazino[1′,2′:4,5][1,4]diaza[2,3-c][1,8]naphthyridin-6,8-dione], the IC50 in assay [1] (Homo sapiens, NCI-H358, 120 h) is 0.053 µM; in assay [2] (Homo sapiens, A549, 120 h), greater than 30 µM; in assay [3] it was 0.566 µM; in assay [4], 0.128 µM.
